Experimental data: US8791102B2, “Acetanilide sphingosine-1-phosphate receptor antagonists” (Exelixis, Inc., priority 2008, dated 2014)

Target: T1, human S1P1 receptors (Homo sapiens, UniProt P21453)
T1 construct: host or cells: HEK293
Assay: S1P1R antagonist assay (fluorescent membrane potential dye, cAMP readout)
Assay type: cell-based
Conditions: HEK293 cells expressing human S1P1 receptors and CNG channel; 500 nM NECA; S1P1R agonist 10 nM; 90 minutes; read-out: EC50 or IC50 value

T1 sequence (P21453 whole entry): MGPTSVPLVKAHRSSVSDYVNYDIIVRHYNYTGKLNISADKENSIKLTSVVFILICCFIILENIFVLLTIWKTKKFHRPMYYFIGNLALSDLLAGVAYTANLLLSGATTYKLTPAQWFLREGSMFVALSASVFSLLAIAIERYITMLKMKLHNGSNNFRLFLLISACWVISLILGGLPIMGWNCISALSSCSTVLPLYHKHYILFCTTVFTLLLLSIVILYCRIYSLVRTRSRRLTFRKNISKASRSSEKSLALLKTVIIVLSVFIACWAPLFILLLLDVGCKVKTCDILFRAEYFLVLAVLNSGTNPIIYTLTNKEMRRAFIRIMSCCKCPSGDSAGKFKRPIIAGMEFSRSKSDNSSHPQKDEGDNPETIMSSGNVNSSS

IC50 [nM]	Compound
> 1000	O=C(CN1CCN(c2ccccc2F)CC1)N[C@@H](COCc1ccccc1)C(=O)Nc1ccc(Oc2ccc(F)cc2)cc1 [Compound 127, (S)-3-(benzyloxy)-N-(4-(4-fluorophenoxy)phenyl)-2-(2-(4-(2-fluorophenyl)piperazin-1-yl)acetamido)propanamide]
≤ 300	O=C(Cn1cncn1)N[C@@H](CCCNC(=O)OCc1ccccc1)C(=O)Nc1ccc(Oc2ccc(F)cc2)cc1 [Compound 165, (S)-benzyl 4-(2-(1H-1,2,4-triazol-1-yl)acetamido)-5-(4-(4-fluorophenoxy)phenylamino)-5-oxopentylcarbamate]
≤ 300	O=C1CC[C@@H](C(=O)N2C[C@H](Cc3ccccc3)C[C@H]2C(=O)Nc2ccc(Oc3ccc(F)cc3)cc2)O1 [Compound 39, (2S,4R)-4-benzyl-N-(4-(4-fluorophenoxy)phenyl)-1-((S)-5-oxotetrahydrofuran-2-carbonyl)pyrrolidine-2-carboxamide]
≤ 300	O=C(Cn1nccn1)N[C@@H](COCc1ccccc1)C(=O)Nc1ccc(Oc2ccc(F)cc2)cc1 [Compound 138, (S)-2-(2-(2H-1,2,3-triazol-2-yl)acetamido)-3-(benzyloxy)-N-(4-(4-fluorophenoxy)phenyl)propanamide]
≤ 300	O=C(Nc1ccc(Oc2ccc(F)cc2)cc1)[C@@H]1C[C@@H](Cc2ccccc2)CN1C(=O)CC(F)(F)F [Compound 34, (2S,4R)-4-benzyl-N-(4-(4-fluorophenoxy)phenyl)-1-(3,3,3-trifluoropropanoyl)pyrrolidine-2-carboxamide]
300 to 1000	O=C(CCCC(=O)c1cccs1)NC(COCc1ccccc1)C(=O)Nc1ccc(Oc2ccccc2)cc1 (stereo not drawn) [Compound 323, 5-oxo-N-(2-oxo-1-{[(phenylmethyl)oxy]methyl}-2-{[4-(phenyloxy)phenyl]amino}ethyl)-5-(2-thienyl)pentanamide]
≤ 300	O=C(Nc1ccc(Oc2ccc(F)cc2)cc1)[C@@H]1C[C@@H](Cc2c(F)cc(F)cc2F)CN1C(=O)Cn1cncn1 [Compound 108, (2S,4R)-1-(2-(1H-1,2,4-triazol-1-yl)acetyl)-N-(4-(4-fluorophenoxy)phenyl)-4-(2,4,6-trifluorobenzyl)pyrrolidine-2-carboxamide]
> 1000	Cc1ccc(C(=O)NC(COCc2ccccc2)C(=O)Nc2ccc(Oc3ccccc3)cc2)cc1C (stereo not drawn) [Compound 279, 3,4-dimethyl-N-(2-oxo-1-{[(phenylmethyl)oxy]methyl}-2-{[4-(phenyloxy)phenyl]amino}ethyl)benzamide]
> 1000	O=C(NC(COCc1ccccc1)C(=O)Nc1ccc(Oc2ccccc2)cc1)c1ccc(OC(F)F)cc1 (stereo not drawn) [Compound 399, 4-[(difluoromethyl)oxy]-N-(2-oxo-1-{[(phenylmethyl)oxy]methyl}-2-{[4-(phenyloxy)phenyl]amino}ethyl)benzamide]
≤ 300	O=C(Nc1ccc(Oc2ccc(F)cc2)cc1)[C@@H]1C[C@@H](Cc2ccc(F)c(F)c2)CN1C(=O)Cn1ccnn1 [Compound 226, (2S,4R)-1-(2-(1H-1,2,3-triazol-1-yl)acetyl)-4-(3,4-difluorobenzyl)-N-(4-(4-fluorophenoxy)phenyl)pyrrolidine-2-carboxamide]
≤ 300	O=C(Cc1c[nH]c2ccc(F)cc12)N[C@@H](COCc1ccccc1)C(=O)Nc1ccc(Oc2ccc(F)cc2)cc1 [Compound 212, (S)-3-(benzyloxy)-2-(2-(5-fluoro-1H-indol-3-yl)acetamido)-N-(4-(4-fluorophenoxy)phenyl)propanamide]
300 to 1000	O=C(Nc1ccc(Oc2ccc(F)cc2)cc1)[C@@H]1C[C@@H](Oc2ccccc2)CN1C(=O)Cn1cncn1 [Compound 259, (2S,4R)-1-(2-(1H-1,2,4-triazol-1-yl)acetyl)-N-(4-(4-fluorophenoxy)phenyl)-4-phenoxypyrrolidine-2-carboxamide]
≤ 300	O=C(Nc1ccc(Oc2ccc(F)cc2)cc1)[C@@H]1C[C@H](Cc2ccc(F)cc2)CN1C(=O)Cn1cncn1 [Compound 76, (2S,4S)-1-(2-(1H-1,2,4-triazol-1-yl)acetyl)-4-(4-fluorobenzyl)-N-(4-(4-fluorophenoxy)phenyl)pyrrolidine-2-carboxamide]
≤ 300	O=C(Nc1ccc(Oc2ccc(F)cc2)cc1)[C@@H]1C[C@@H](Cc2cccc(Cl)c2)CN1C(=O)Cn1ccnn1 [Compound 263, (2S,4R)-1-(2-(1H-1,2,3-triazol-1-yl)acetyl)-4-(3-chlorobenzyl)-N-(4-(4-fluorophenoxy)phenyl)pyrrolidine-2-carboxamide]
> 1000	O=C(NC(COCc1ccccc1)C(=O)Nc1ccc(Oc2ccccc2)cc1)c1ccnc2ccccc12 (stereo not drawn) [Compound 365, N-(2-oxo-1-{[(phenylmethyl)oxy]methyl}-2-{[4-(phenyloxy)phenyl]amino}ethyl)quinoline-4-carboxamide]
≤ 300	O=C(Nc1ccc(Oc2ccc(F)cc2)cc1)[C@@H]1C[C@@H](Cc2c(F)cc(F)cc2F)CN1C(=O)Cn1nccn1 [Compound 169, (2S,4R)-1-(2-(2H-1,2,3-triazol-2-yl)acetyl)-N-(4-(4-fluorophenoxy)phenyl)-4-(2,4,6-trifluorobenzyl)pyrrolidine-2-carboxamide]

IC50 [nM]	Compound
300 to 1000	O=C(Cc1cc(Cl)ccc1Cl)N[C@@H](COCc1ccccc1)C(=O)Nc1ccc(Oc2ccccc2)cc1 [Compound 199, (S)-2-(2-(2,5-dichlorophenyl)acetamido)-3-benzyloxy-N-(4-phenoxyphenyl)propanamide]
> 1000	O=C(NC(COCc1ccccc1)C(=O)Nc1ccc(Oc2ccccc2)cc1)c1cccs1 (stereo not drawn) [Compound 292, N-(2-oxo-1-{[(phenylmethyl)oxy]methyl}-2-{[4-(phenyloxy)phenyl]amino}ethyl)thiophene-2-carboxamide]
≤ 300	O=C(Nc1ccc(Oc2ccc(F)cc2)cc1)[C@@H]1C[C@@H](Cc2ccc(F)cc2)C(=O)N1C(=O)Cn1cncn1 [Compound 71, (2S,4R)-1-(2-(1H-1,2,4-triazol-1-yl)acetyl)-4-(4-fluorobenzyl)-N-(4-(4-fluorophenoxy)phenyl)-5-oxopyrrolidine-2-carboxamide]
≤ 300	O=C(Nc1ccc(Oc2ccc(F)cc2)cc1)[C@@H]1C[C@@H](OCc2ccccc2)CN1C(=O)Cn1cncn1 [Compound 252, (2S,4R)-1-(2-(1H-1,2,4-triazol-1-yl)acetyl)-4-(benzyloxy)-N-(4-(4-fluorophenoxy)phenyl)pyrrolidine-2-carboxamide]
> 1000	COc1ccc(C2(C(=O)NC(COCc3ccccc3)C(=O)Nc3ccc(Oc4ccccc4)cc3)CC2)cc1 (stereo not drawn) [Compound 360, N-(2-oxo-1-{[(phenylmethyl)oxy]methyl}-2-{[4-(phenyloxy)phenyl]amino}ethyl)-1-(4-methoxyphenyl)cyclopropanecarboxamide]
> 1000	O=C(Cc1ccc(Br)cc1)NC(COCc1ccccc1)C(=O)Nc1ccc(Oc2ccccc2)cc1 (stereo not drawn) [Compound 390, N-(2-oxo-1-{[(phenylmethyl)oxy]methyl}-2-{[4-(phenyloxy)phenyl]amino}ethyl)-2-(4-bromophenyl)acetamide]
≤ 300	O=C(Cc1cnc[nH]1)N[C@@H](COCc1ccccc1)C(=O)Nc1ccc(Oc2ccccc2)c(Cl)c1 [Compound 147, (S)-2-(2-(1H-imidazol-4-yl)acetamido)-3-(benzyloxy)-N-(3-chloro-4-phenoxyphenyl)propanamide]
300 to 1000	O=C(CN1CCN(c2ccccc2)CC1)N[C@@H](COCc1ccccc1)C(=O)Nc1ccc(Oc2ccc(F)cc2)cc1 [Compound 225, (S)-3-(benzyloxy)-N-(4-(4-fluorophenoxy)phenyl)-2-(2-(4-phenylpiperazin-1-yl)acetamido)propanamide]
> 1000	N#Cc1ccc(C(=O)NC(COCc2ccccc2)C(=O)Nc2ccc(Oc3ccccc3)cc2)cc1 (stereo not drawn) [Compound 380, 4-cyano-N-(2-oxo-1-{[(phenylmethyl)oxy]methyl}-2-{[4-(phenyloxy)phenyl]amino}ethyl)benzamide]
≤ 300	COC(=O)CCC(=O)N1C[C@H](Cc2ccccc2)C[C@H]1C(=O)Nc1ccc(Oc2ccc(F)cc2)cc1 [Compound 125, methyl 4-((2S,4R)-4-benzyl-2-(4-(4-fluorophenoxy)phenylcarbamoyl)pyrrolidin-1-yl)-4-oxobutanoate]
≤ 300	Cc1nc(CC(=O)N[C@@H](COCc2ccccc2)C(=O)Nc2ccc(Oc3ccc(F)cc3)cc2)c[nH]1 [Compound 162, (S)-3-(benzyloxy)-N-(4-(4-fluorophenoxy)phenyl)-2-(2-(2-methyl-1H-imidazol-4-yl)acetamido)propanamide]
≤ 300	CC(=O)NCCC[C@H](NC(=O)Cn1cncn1)C(=O)Nc1ccc(Oc2ccc(F)cc2)cc1 [Compound 254, (S)-2-(2-(1H-1,2,4-triazol-1-yl)acetamido)-5-acetamido-N-(4-(4-fluorophenoxy)phenyl)pentanamide]
≤ 300	Cc1cc(CC(=O)N2C[C@H](Cc3ccccc3)C[C@H]2C(=O)Nc2ccc(Oc3ccc(F)cc3)cc2)on1 [Compound 32, (2S,4R)-4-benzyl-N-(4-(4-fluorophenoxy)phenyl)-1-(2-(3-methylisoxazol-5-yl)acetyl)pyrrolidine-2-carboxamide]
> 1000	O=C(CCC(=O)c1cccs1)NC(COCc1ccccc1)C(=O)Nc1ccc(Oc2ccccc2)cc1 (stereo not drawn) [Compound 312, 4-oxo-N-(2-oxo-1-{[(phenylmethyl)oxy]methyl}-2-{[4-(phenyloxy)phenyl]amino}ethyl)-4-(2-thienyl)butanamide]
≤ 300	Cc1n[nH]c(C)c1CC(=O)N[C@@H](COCc1ccc(F)cc1)C(=O)Nc1ccc(Oc2ccc(F)cc2)cc1 [Compound 258, (S)-2-(2-(3,5-dimethyl-1H-pyrazol-4-yl)acetamido)-3-(4-fluorobenzyloxy)-N-(4-(4-fluorophenoxy)phenyl)propanamide]
> 1000	CSc1ncccc1C(=O)NC(COCc1ccccc1)C(=O)Nc1ccc(Oc2ccccc2)cc1 (stereo not drawn) [Compound 28, N-(3-(benzyloxy)-1-oxo-1-(4-phenoxyphenylamino)propan-2-yl)-2-(methylthio)nicotinamide]

Compound	IC50 [nM]
CCCCOCC(=O)N1C[C@H](Cc2ccccc2)C[C@H]1C(=O)Nc1ccc(Oc2ccc(F)cc2)cc1 [Compound 38, (2S,4R)-4-benzyl-1-(2-butoxyacetyl)-N-(4-(4-fluorophenoxy)phenyl)pyrrolidine-2-carboxamide]	≤ 300
